According to patent US20250161309A1, “TOPICAL COMPOSITIONS AND USES THEROF” (TOPADUR PHARMA AG, priority 2022, published 2025):

Tests used:
[1] = system: C57BL/6 mouse model of alopecia; test: Topical administration and hair growth in C57BL/6 mouse model of alopecia (telogen phase, clipped dorsal skin); type: in vivo; conditions: for animals with visual melanogenesis in peeled skin: end of study; for day of skin colour change from pink to light grey (transition from telogen to anagen phase): after hair growth induction; for adverse effects in relation to general health or body weight: topical twice daily, 5 days/week, 4 weeks, compared to vehicle group
From the text: Dorsal hair of C57BL/6 mouse is known to have a time synchronized hair cycle. From about 18-21 days of age (2-3 weeks old) and 47-95 days of age (6-14 weeks old), the dorsal hair are in the telogen/quiescent phase (visually pink skin) [Lee B H, Lee J S, Kim Y C. Hair growth-promoting effects of lavender oil in C57BL/6 mice. Toxicol Res. (2016) 32(2):103-108; Choi H I, Kang B M, Jang J, Hwang S T, Kwon O. Novel effect of sildenafil on hair growth. Biochem Biophys Res Commun. (2018) 505(3):685-691]. C57BL/6 mouse therefore is a well-established model for studying hair growth promotion.
Male and female C57BL/6 mice of 6 to 9 weeks of age in stable telogen phase of hair growth cycle were used (obtained from Vivo Bio Tech Ltd, Telangana, India).
50 μL of a clear solution of respective 0.02%, 0.002% and 0.0002% (w/v) concentrations of Cpd 1 in the corresponding vehicle (PEG-400:EtOH/7:3) (PEG-400: Central Drug House Ltd. Dehli, India; Ethanol: Changshu Hongsheng fine chemicals Co. Ltd. China) and the positive control, 2% solution (female) or 5% (male) (w/v) Minoxidil (Chemieliva, China) in the corresponding vehicle (PEG-400:EtOH/7:3) were topically applied to the clipped area on the dorsal back of the mice. The solutions covered a circular area of approximately 2 cm^2. The treatment regimen was twice daily application for 5 days/week for total of 4 weeks.
The selected animals on day 1 weighted on average 20.05 g±0.17 ranging from 19.8 to 20.2 g. The hair on the dorsal back (approx. 4×4 cm^2) of these animals were clipped without touching the skin of the animal, using an electric clipper, on day 0 before the treatment with Cpd 1 and the hair was collected. The treatment followed by visual analysis for anagen onset, skin color change and appearance of any hair growth were monitored. After completion of the experiment, the dorsal skin of all the animals was removed and visual melanogenesis was reported. The skin sections were then preserved in 10% formalin solution for further histopathology analysis.
Animals were observed during 30 days and the hair growth score was recorded on daily basis. The criteria for scoring of hair growth is as follows: no hair growth, pink skin—score 0; skin colour changes from pink to grey/light grey without visible hair growth—score 0.5 onset of anagen (skin colour changes from grey/light grey to dark grey/black without visible hair growth)—score 1; sparse hair growth—score 1.5; diffuse short hair growth—score 2, moderate hair growth—score 2.5 and dense, normal coat hair—score 3 (Lee B H, Lee J S, Kim Y C. Hair growth-promoting effects of lavender oil in C57BL/6 mice. Toxicol Res. (2016) 32(2):103-108).
Photographs of the animals were captured before the initiation and during the course of the study.
After completion of the experiments all animals were sacrificed by euthanasia (Choi H I, Kang B M, Jang J, Hwang S T, Kwon O. Novel effect of sildenafil on hair growth. Biochem Biophys Res Commun. (2018) 505(3):685-691). The dorsal skin of each animal was then removed by peeling. The peeled skin was spread and checked visually for the induction of melanogenesis indicated by visual blackening on the reverse side of the skin. The skin samples were evenly spread on a pre-labelled glass slide and kept in 10% formalin until further use. Later, the skin samples were embedded in paraffin and sectioned at 5 microns using a microtome and the corresponding slides per animal were prepared. The slides obtained were used for Haematoxylin & Eosin (H&E) staining and in the transverse and longitudinal sections' photomicrographs data, the total number of follicles in the dermis and the sub cutis were determined for each animal. The skin thickness was measured using Image J 1.44 software.
The statistical analyses were performed using GraphPad Prism 9.0.0 software. Statistical significance was determined by One-way or Two-Way ANOVA followed by Tukey's multiple comparison test. […]

[2] = system: battery of 44 targets (SafetyScreen44); test: Off-target selectivity, (radio)ligand binding and enzymatic assays, SafetyScreen44 (Eurofins Cerep); set-up: species or system human; conditions: 100 nM; all 44 targets of Table 4 (incl. hERG, PDE3A, PDE4D2, COX1, COX2); no significant responses
Method: In vitro pharmacological profiling is increasingly being used earlier in the drug discovery process to identify undesirable off-target activity profiles that could hinder or halt the development of candidate drugs or even lead to market withdrawal if discovered after a drug is approved (Bowes N, et. al., Nature Reviews Drug Discovery 11(12):909-22). Thus, the Off-target selectivity of Compound 1 at 100 nM was tested in (radio)ligand binding and enzymatic assays against a battery of 44 targets (SafetyScreen44™, atEurofins Cerep, France).

In the case of `CCCOc1ccc(S(=O)(=O)N2CCC(CCO[N+](=O)[O-])(CCO[N+](=O)[O-])CC2)cc1-c1nc2c(CCC)cn(CC)c2c(=O)[nH]1` [Cpd 1, (1-((3-(5-ethyl-4-oxo-7-propyl-4,5-dihydro-3H-pyrrolo[3,2-d]pyrimidin-2-yl)-4-propoxyphenyl)sulfonyl)piperidine-4,4-diyl)bis(ethane-2,1-diyl) dinitrate], the “number of follicles in the subcutis layer of the skin and total follicle counts compared to control group” value ([1]; female mice) is reported as “considerable higher number”, the “animals with visual melanogenesis in peeled skin” value (“animals with visual melanogenesis” below) ([1]; female mice, 0.0002% (w/v)) is reported as 2/5 and the “anagen hair follicles (histology, H&E) compared to vehicle and 2% Minoxidil” value ([1]; female mice, 0.0002% and 0.002% groups) is reported as “more”. The “day of skin colour change from pink to light grey (transition from telogen to anagen phase)” value ([1]; female mice, 0.002% (w/v)) was 10 day, the “hair growth score among treatment groups” value ([1]; female mice, 0.002% (w/v), at day 30, followed by low dose groups and Minoxidil group) was “maximal” and the “animals with visual melanogenesis” value ([1]; female mice, 0.002% (w/v)) was 2/5. The “hair growth (score) compared to vehicle group” value ([1]; female mice, 0.002% (w/v), from day 26 on) was “significantly higher”, the “skin thickness compared to vehicle and 2% Minoxidil groups” value ([1]; female mice, Cpd 1 treatment) was “increased” and the “area of black skin compared to control groups” value ([1]; female mice, at day 24) was “larger”. For the same compound, the “adverse effects in relation to general health or body weight” value ([1]; female mice) was “No adverse effects”, the “number of follicles in the subcutis layer of the skin and total follicle counts compared to control group” value ([1]; male mice) was “considerable higher number” and the “skin thickness compared to vehicle group” value ([1]; male mice, 0.002% (w/v)) was “increased”. For the same compound, the “hair growth (score) compared to vehicle” value ([1]; male mice, 0.002% (w/v) in PEG-400:EtOH/7:3, from day 5 on) was “significantly higher”, the “day of skin colour change from pink to light grey (transition from telogen to anagen phase)” value ([1]; male mice, 0.002% (w/v)) was 10 day and the “hair growth compared to vehicle group” value ([1]; male mice, 0.002% (w/v), at day 22) was “significantly higher”. The “animals with visual melanogenesis” value ([1]; male mice, 0.002% (w/v)) was 2/5, the “hair growth (score) compared to 5% Minoxidil” value ([1]; male mice, 0.002% (w/v), from day 15) was “significant increase” and the “anagen hair follicles (histology, H&E)” value ([1]; male mice, Cpd 1-treated groups) was “more”. For the same compound, the “adverse effects in relation to general health or body weight” value ([1]; male mice) was “No adverse effects” and the “inhibition or stimulation to any of the targets” value [2] was < 50%.
